Source: patent US9604968B2, “Pure crystalline Form II of L-malic acid salt of sunitinib and processes for its preparation” (RANBAXY LABORATORIES LIMITED, priority 2013, dated 2017)

Key:
[1] = Storage stability: chromatographic purity (HPLC) of crystalline Form II on storage; type: physicochemical; conditions: for Chromatographic Purity (1M storage at 25° C. ± 2° C./60% ± 5% RH) / Chromatographic Purity after 1M storage (at 25° C.±2° C./60%±5% RH) / Chromatographic Purity (1M storage at 40° C. ± 2° C./75% ± 5% RH) / Chromatographic Purity after 1M storage (at 40° C.±2° C./75%±5% RH): 1 month storage; for Chromatographic Purity (Initial): before storage
From the text: In an embodiment of the first aspect, the pure crystalline Form II of the L-malic acid salt of sunitinib has a purity of not less than 97.0% as measured by a chromatographic technique such as High-Performance Liquid Chromatography (HPLC).
Table 1 below compares the chromatographic purity of crystalline Form II of an L-malic acid salt of sunitinib prepared without using an anti-oxidant (as per Example 8), and pure crystalline Form II of an L-malic acid salt of sunitinib prepared using an anti-oxidant (as per Examples 1, 2, and 4), on storage at 25° C.±2° C. and 40° C.±2° C. at a relative humidity of 60%±5% and 75%±5%, respectively, for 1 month and above.

[2] = cited from earlier work

Row | Compound | Chromatographic Purity (1M storage at 25° C. ± 2° C./60% ± 5% RH) ([1]; 25° C.±2° C., 60%±5% RH) [% w/w] | Chromatographic Purity after 1M storage (at 25° C.±2° C./60%±5% RH) ([1]; 25° C.±2° C., 60%±5% RH) [%] | Chromatographic Purity (1M storage at 40° C. ± 2° C./75% ± 5% RH) ([1]; 40° C.±2° C., 75%±5% RH) [% w/w] | Chromatographic Purity after 1M storage (at 40° C.±2° C./75%±5% RH) ([1]; 40° C.±2° C., 75%±5% RH) [%] | Chromatographic Purity (Initial) [1] [% w/w] | Chromatographic Purity (Initial) ([1]; example text) [%] | hygroscopicity ([2]; disclosed in WO 2009/104021) | form conversion and moisture absorption on storage ([2]; disclosed in WO 2011/061613) | Chromatographic Purity (1M storage at 25° C. ± 2° C./60% ± 5% RH) ([1]; 25° C. ± 2° C., 60% ± 5% RH, listed as Example 8) [% w/w] | Chromatographic Purity (1M storage at 40° C. ± 2° C./75% ± 5% RH) ([1]; 40° C. ± 2° C., 75% ± 5% RH, listed as Example 8) [% w/w] | Chromatographic Purity (Initial) ([1]; listed as Example 8) [% w/w]
1 | CCN(CC)CCNC(=O)c1c(C)[nH]c(/C=C2\C(=O)Nc3ccc(F)cc32)c1C.O=C(O)C[C@H](O)C(=O)O [Example 1, butanedioic acid, hydroxy-, (2S)-, compound with N-[2-(diethylamino)ethyl]-5-[(Z)-(5-fluoro-1,2-dihydro-2-oxo-3H-indol-3-ylidine)methyl]-2,4-dimethyl-1H-pyrrole-3-carboxamide (1:1)] | 98.4 | 98.4 | 97.0 | 97.0 | 99.1 | 99.10 | – | – | – | – | –
2 | CCN(CC)CCNC(=O)c1c(C)[nH]c(/C=C2\C(=O)Nc3ccc(F)cc32)c1C.O=C(O)C[C@H](O)C(=O)O [Form II of sunitinib L-malate] | – | – | – | – | – | – | hygroscopic | – | – | – | –
3 | CCN(CC)CCNC(=O)c1c(C)[nH]c(/C=C2\C(=O)Nc3ccc(F)cc32)c1C.O=C(O)C[C@H](O)C(=O)O [stable crystalline Form II] | – | – | – | – | – | – | – | does not convert to any other form or absorb moisture on storage | – | – | –
4 | CCN(CC)CCNC(=O)c1c(C)[nH]c(/C=C2\C(=O)Nc3ccc(F)cc32)c1C.O=C(O)C[C@H](O)C(=O)O [Example 7, butanedioic acid, hydroxy-, (2S)-, compound with N-[2-(diethylamino)ethyl]-5-[(Z)-(5-fluoro-1,2-dihydro-2-oxo-3H-indol-3-ylidine)methyl]-2,4-dimethyl-1H-pyrrole-3-carboxamide (1:1)] | – | 87.4 | – | 87.8 | – | 99.50 | – | – | 87.4 | 87.8 | 99.5
5 | CCN(CC)CCNC(=O)c1c(C)[nH]c(/C=C2\C(=O)Nc3ccc(F)cc32)c1C.O=C(O)C[C@H](O)C(=O)O [Example 2, butanedioic acid, hydroxy-, (2S)-, compound with N-[2-(diethylamino)ethyl]-5-[(Z)-(5-fluoro-1,2-dihydro-2-oxo-3H-indol-3-ylidine)methyl]-2,4-dimethyl-1H-pyrrole-3-carboxamide (1:1)] | 98.7 | 98.7 | 97.3 | 97.3 | 99.7 | 99.70 | – | – | – | – | –
6 | CCN(CC)CCNC(=O)c1c(C)[nH]c(/C=C2\C(=O)Nc3ccc(F)cc32)c1C.O=C(O)C[C@H](O)C(=O)O [Example 4, butanedioic acid, hydroxy-, (2S)-, compound with N-[2-(diethylamino)ethyl]-5-[(Z)-(5-fluoro-1,2-dihydro-2-oxo-3H-indol-3-ylidine)methyl]-2,4-dimethyl-1H-pyrrole-3-carboxamide (1:1)] | 99.7 | 99.70 | 99.3 | 99.3 | 99.7 | 99.70 | – | – | – | – | –
